Measurements reported in PubChem BioAssay (NCI).
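Five concentrations, 48 hours, 96-well plates. Abbreviation: GI50, concentration required for 50% inhibition of growth. TGI denotes the concentration required for complete inhibition of growth.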

Legend:
Experiment in all cases: NCI anticancer screen, dose series, 48 h
A549 NSCLC = test system: A549 NSCLC
BT-549 breast = test system: BT-549 breast
HCT-116 colon = test system: HCT-116 colon
M14 melanoma = test system: M14 melanoma
MDA-MB-435 = test system: MDA-MB-435
MDA-N = test system: MDA-N
MOLT-4 leukemia = test system: MOLT-4 leukemia
NCI-H23 lung = test system: NCI-H23 lung
NCI-H460 lung = test system: NCI-H460 lung
SF-268 CNS = test system: SF-268 CNS
SF-295 CNS = test system: SF-295 CNS
SF-539 CNS = test system: SF-539 CNS

Row | SMILES | TGI (A549 NSCLC) | TGI (BT-549 breast) | TGI (HCT-116 colon) | TGI (M14 melanoma) | TGI (MDA-MB-435) | TGI (MDA-N) | TGI (MOLT-4 leukemia) | TGI (NCI-H23 lung) | TGI (NCI-H460 lung) | TGI (SF-268 CNS) | TGI (SF-295 CNS) | TGI (SF-539 CNS) | GI50 (SF-539 CNS)
1 | CC(C)C1OC(=O)/C=C/C=C/C=C/C=C/C=C/CC(O)CC(O)CC(O)CC(O)CC(O)CC(O)CC(O)CC(O)/C=C/C1C (stereo not drawn) | > 100 µM | > 100 µM | > 100 µM | > 100 µM | > 100 µM | > 100 µM | > 100 µM | > 100 µM | > 100 µM | > 100 µM | > 100 µM | > 100 µM | –
2 | CCCCOC(=O)C(O)Cc1ccoc1 (stereo not drawn) | > 100 µM | > 100 µM | > 100 µM | > 100 µM | > 100 µM | > 100 µM | > 100 µM | > 100 µM | > 100 µM | > 100 µM | > 100 µM | > 100 µM | –
3 | N#CC1(C#N)NC(c2ccsc2)C(C#N)(C#N)NC1c1ccsc1 (stereo not drawn) | > 100 µM | > 100 µM | > 100 µM | > 100 µM | > 100 µM | > 100 µM | > 100 µM | > 100 µM | > 100 µM | > 100 µM | > 100 µM | > 100 µM | –
4 | COC(=O)/C=c1/c2ccccc2n2nc3ccccc3c12 | > 100 µM | > 100 µM | > 100 µM | > 100 µM | > 100 µM | > 100 µM | 35.3 µM | > 100 µM | > 100 µM | > 100 µM | > 100 µM | > 100 µM | –
5 | Cc1cccc2c1NC(=S)[C@@H]1CCCN1C2=O | > 100 µM | > 100 µM | > 100 µM | > 100 µM | > 100 µM | > 100 µM | > 100 µM | > 100 µM | > 100 µM | > 100 µM | > 100 µM | > 100 µM | –
6 | CC[n+]1c(/C=C/c2ccc(N(CCCl)CCCl)cc2)ccc2cc(NC(=O)/C=C/c3ccccc3)ccc21 | 6.09 µM | 1.58 µM | 1.34 µM | 3.28 µM | 1.07 µM | 1.7 µM | 1.69 µM | 1.98 µM | 1.36 µM | 1.96 µM | 7.81 µM | 2.03 µM | –
7 | CN(C)c1ccc(N=Nc2ccccn2)cc1 | > 100 µM | > 100 µM | > 100 µM | > 100 µM | > 100 µM | > 100 µM | 40.9 µM | 83.2 µM | > 100 µM | > 100 µM | > 100 µM | > 100 µM | –
8 | COc1ccc(N=C(Nc2ccc(OC)cc2)C(=Nc2ccc(OC)cc2)Nc2ccc(OC)cc2)cc1 | > 100 µM | > 100 µM | > 100 µM | > 100 µM | > 100 µM | > 100 µM | > 100 µM | > 100 µM | > 100 µM | > 100 µM | > 100 µM | > 100 µM | –
9 | CSc1ccc(/C=C2\N=C(c3ccccc3)N(c3nc4ccc(Sc5ccccc5)cc4[nH]3)C2=O)cc1 | > 97.2 µM | 50.1 µM | 48.5 µM | 32.5 µM | 16.1 µM | 18 µM | 80.9 µM | > 94.5 µM | 61.3 µM | > 77.8 µM | 50.5 µM | 32.5 µM | 15 µM
10 | CCOC(=O)CCC(NC(=O)c1ccc(N2CCN(c3c(C)nc(N)nc3N)CC2)cc1)C(=O)OCC (stereo not drawn) | > 100 µM | > 100 µM | > 100 µM | > 46 µM | > 48.1 µM | > 54.7 µM | > 100 µM | > 100 µM | 96.9 µM | > 100 µM | > 100 µM | > 100 µM | –
11 | CCC(CCCC[C@@H]1CC[C@H]2CC(=O)C[C@@H]12)OC (stereo partly drawn) | > 100 µM | > 100 µM | > 100 µM | > 100 µM | > 100 µM | > 100 µM | > 100 µM | > 100 µM | > 100 µM | > 100 µM | > 100 µM | > 100 µM | –
